Laboratory results taken from patent US9796706B2, “Inhibitors of Jun N-terminal kinase” (IMAGO PHARMACEUTICALS, INC., priority 2009, dated 2017).

What was measured:
Format in all cases: biochemical
Conditions in all cases: procedures of Example 14 (TR-FRET)
JNK3 = JNK3 (Homo sapiens (Human), UniProt P53779); experiment: JNK3 TR-FRET kinase assay (Example 14)
How it was run: (§1)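 Two TR-FRET formats were used for each JNK isoform. In the direct one, preactivated aJNK phosphorylated EPIW-1 at about 1 mM final ATP (RT, 15 min). Both were EDTA-quenched and read by HTRF.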

JNK1 = JNK1 (Homo sapiens (Human), UniProt P45983); experiment: JNK1 TR-FRET kinase assay (Example 14)
Chain of JNK1 (P45983 other isoform, or with tags, fused parts or gaps isoform P45983-2, species assumed): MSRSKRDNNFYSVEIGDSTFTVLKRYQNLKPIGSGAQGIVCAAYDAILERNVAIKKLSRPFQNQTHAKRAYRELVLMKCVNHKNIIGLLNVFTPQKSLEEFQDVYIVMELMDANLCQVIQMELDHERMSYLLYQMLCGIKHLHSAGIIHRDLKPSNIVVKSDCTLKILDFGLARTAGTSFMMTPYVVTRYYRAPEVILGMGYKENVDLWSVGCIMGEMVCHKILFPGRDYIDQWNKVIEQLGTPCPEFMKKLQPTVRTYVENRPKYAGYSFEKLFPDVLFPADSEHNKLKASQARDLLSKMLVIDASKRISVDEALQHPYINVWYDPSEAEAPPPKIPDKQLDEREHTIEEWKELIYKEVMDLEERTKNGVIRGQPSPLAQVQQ
How it was run: as §1

JNK2 = JNK2 (Homo sapiens (Human), UniProt P45984); experiment: JNK2 TR-FRET kinase assay (Example 14)
Chain of JNK2 (P45984 whole entry, species assumed): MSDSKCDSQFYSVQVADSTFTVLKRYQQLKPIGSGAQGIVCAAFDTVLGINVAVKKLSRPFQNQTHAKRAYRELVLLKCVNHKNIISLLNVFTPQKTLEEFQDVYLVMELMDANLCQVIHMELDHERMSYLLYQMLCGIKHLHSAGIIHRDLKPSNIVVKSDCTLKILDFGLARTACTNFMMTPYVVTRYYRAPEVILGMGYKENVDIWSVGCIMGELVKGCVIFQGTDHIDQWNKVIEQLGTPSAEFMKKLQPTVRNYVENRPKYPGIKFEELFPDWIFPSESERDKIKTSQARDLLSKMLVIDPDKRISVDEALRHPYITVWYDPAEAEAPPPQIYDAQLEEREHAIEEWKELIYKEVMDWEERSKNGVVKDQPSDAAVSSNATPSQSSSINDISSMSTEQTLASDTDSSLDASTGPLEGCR
How it was run: as §1

Chain of JNK3 (P53779 whole entry, species assumed, canonical isoform): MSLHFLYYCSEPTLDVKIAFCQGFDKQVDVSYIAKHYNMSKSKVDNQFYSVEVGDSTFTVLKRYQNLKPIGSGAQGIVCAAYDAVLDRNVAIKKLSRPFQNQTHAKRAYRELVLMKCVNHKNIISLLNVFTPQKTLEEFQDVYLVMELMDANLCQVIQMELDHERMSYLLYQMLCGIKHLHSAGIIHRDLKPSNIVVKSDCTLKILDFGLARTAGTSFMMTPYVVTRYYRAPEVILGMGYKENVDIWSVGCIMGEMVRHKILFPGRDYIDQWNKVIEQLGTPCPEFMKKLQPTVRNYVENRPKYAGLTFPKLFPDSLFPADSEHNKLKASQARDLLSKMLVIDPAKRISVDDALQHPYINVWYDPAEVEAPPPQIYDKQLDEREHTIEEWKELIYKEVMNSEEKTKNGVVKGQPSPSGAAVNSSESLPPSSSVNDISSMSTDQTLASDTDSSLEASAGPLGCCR

| SMILES | IC50 (JNK3) [nM] | IC50 (JNK1) [nM] | IC50 (JNK2) [nM] |
| --- | --- | --- | --- |
| O=C(Cc1cccc2cnccc12)Nc1scnc1-c1cscn1 [N-(4,4′-bithiazol-5-yl)-2-(isoquinolin-5-yl)acetamide] | < 100 | < 100 | 100 to 10000 |
| O=C(Cc1cccc2cnccc12)Nc1scnc1-c1ncn[nH]1 [N-(4-(1H-1,2,4-triazol-5-yl)thiazol-5-yl)-2-(isoquinolin-5-yl)acetamide] | 100 to 10000 | 100 to 10000 | 100 to 10000 |
| Cn1cnc(-c2c(Br)csc2NC(=O)CN2C(=O)CCc3ncccc32)n1 [N-(4-bromo-3-(1-methyl-1H-1,2,4-triazol-3-yl)thiophen-2-yl)-2-(2-oxo-3,4-dihydro-1,5-naphthyridin-1(2H)-yl)acetamide] | < 100 | < 100 | < 100 |
| O=C(Cc1ccc2ccc(C(F)(F)F)nc2c1)Nc1scc(Br)c1-c1nc[nH]n1 [N-(4-bromo-3-(1H-1,2,4-triazol-3-yl)thiophen-2-yl)-2-(2-(trifluoromethyl)quinolin-7-yl)acetamide] | 100 to 10000 | 100 to 10000 | 100 to 10000 |
| O=C(Cc1cccc2ncc(C(F)(F)F)cc12)Nc1scc(Br)c1-c1nc[nH]n1 [N-(4-bromo-3-(1H-1,2,4-triazol-3-yl)thiophen-2-yl)-2-(3-(trifluoromethyl)quinolin-5-yl)acetamide] | < 100 | < 100 | 100 to 10000 |
| O=C(Cc1cccc2cc(C(F)(F)F)cnc12)Nc1scc(Br)c1-c1nc[nH]n1 [N-(4-bromo-3-(1H-1,2,4-triazol-3-yl)thiophen-2-yl)-2-(3-(trifluoromethyl)quinolin-8-yl)acetamide] | 100 to 10000 | 100 to 10000 | 100 to 10000 |
| O=C(Cc1cccc2ncc(F)cc12)Nc1scc(Br)c1-c1nc[nH]n1 [N-(4-bromo-3-(1H-1,2,4-triazol-3-yl)thiophen-2-yl)-2-(3-fluoroquinolin-5-yl)acetamide] | < 100 | < 100 | < 100 |
| O=C(Cc1cccc2cc(F)cnc12)Nc1scc(Br)c1-c1nc[nH]n1 [N-(4-bromo-3-(1H-1,2,4-triazol-3-yl)thiophen-2-yl)-2-(3-fluoroquinolin-8-yl)acetamide] | 100 to 10000 | < 100 | 100 to 10000 |
| O=C(Cn1c(=O)ccc2ncccc21)Nc1scc(Br)c1-c1ncn[nH]1 [N-(4-bromo-3-(1H-1,2,4-triazol-5-yl)thiophen-2-yl)-2-(2-oxo-1,5-naphthyridin-1(2H)-yl)acetamide] | < 100 | < 100 | < 100 |
| O=C(Cn1c(=O)ccc2cnccc21)Nc1scc(Br)c1-c1ncn[nH]1 [N-(4-bromo-3-(1H-1,2,4-triazol-5-yl)thiophen-2-yl)-2-(2-oxo-1,6-naphthyridin-1(2H)-yl)acetamide] | < 100 | < 100 | < 100 |
| O=C(CN1C(=O)CCc2ncccc21)Nc1scc(Br)c1-c1ncn[nH]1 [N-(4-bromo-3-(1H-1,2,4-triazol-5-yl)thiophen-2-yl)-2-(2-oxo-3,4-dihydro-1,5-naphthyridin-1(2H)-yl)acetamide] | < 100 | < 100 | < 100 |
| O=C(CN1C(=O)CCc2cnccc21)Nc1scc(Br)c1-c1ncn[nH]1 [N-(4-bromo-3-(1H-1,2,4-triazol-5-yl)thiophen-2-yl)-2-(2-oxo-3,4-dihydro-1,6-naphthyridin-1(2H)-yl)acetamide] | < 100 | < 100 | < 100 |
| O=C(CN1C(=O)CCc2ccccc21)Nc1scc(Br)c1-c1ncn[nH]1 [N-(4-bromo-3-(1H-1,2,4-triazol-5-yl)thiophen-2-yl)-2-(2-oxo-3,4-dihydroquinolin-1(2H)-yl)acetamide] | < 100 | < 100 | < 100 |
| O=C(CN1C(=O)CCc2cc(C(F)(F)F)ccc21)Nc1scc(Br)c1-c1ncn[nH]1 [N-(4-bromo-3-(1H-1,2,4-triazol-5-yl)thiophen-2-yl)-2-(2-oxo-6-(trifluoromethyl)-3,4-dihydroquinolin-1(2H)-yl)acetamide] | < 100 | < 100 | < 100 |
| O=C(Cn1c(=O)ccc2c(F)cccc21)Nc1scc(Br)c1-c1ncn[nH]1 [N-(4-bromo-3-(1H-1,2,4-triazol-5-yl)thiophen-2-yl)-2-(5-fluoro-2-oxoquinolin-1(2H)-yl)acetamide] | < 100 | < 100 | < 100 |
| O=C(Cn1c(=O)ccn2nc(C(F)(F)F)cc12)Nc1scc(Br)c1-c1ncn[nH]1 [N-(4-bromo-3-(1H-1,2,4-triazol-5-yl)thiophen-2-yl)-2-(5-oxo-2-(trifluoromethyl)pyrazolo[1,5-a]pyrimidin-4(5H)-yl)acetamide] | < 100 | < 100 | < 100 |
| O=C(Cn1c(=O)ccn2nccc12)Nc1scc(Br)c1-c1ncn[nH]1 [N-(4-bromo-3-(1H-1,2,4-triazol-5-yl)thiophen-2-yl)-2-(5-oxopyrazolo[1,5-a]pyrimidin-4(5H)-yl)acetamide] | < 100 | < 100 | < 100 |
| O=C(Cn1c(=O)ccc2cc(F)c(F)cc21)Nc1scc(Br)c1-c1ncn[nH]1 [N-(4-bromo-3-(1H-1,2,4-triazol-5-yl)thiophen-2-yl)-2-(6,7-difluoro-2-oxoquinolin-1(2H)-yl)acetamide] | < 100 | < 100 | < 100 |
| O=C(CN1C(=O)CCc2cc(F)ccc21)Nc1scc(Br)c1-c1ncn[nH]1 [N-(4-bromo-3-(1H-1,2,4-triazol-5-yl)thiophen-2-yl)-2-(6-fluoro-2-oxo-3,4-dihydroquinolin-1(2H)-yl)acetamide] | < 100 | < 100 | < 100 |
| O=C(Cc1c(F)ccc2ncccc12)Nc1scc(Br)c1-c1ncn[nH]1 [N-(4-bromo-3-(1H-1,2,4-triazol-5-yl)thiophen-2-yl)-2-(6-fluoroquinolin-5-yl)acetamide] | < 100 | < 100 | < 100 |
| O=C(Cc1cc2ncccc2cc1F)Nc1scc(Br)c1-c1ncn[nH]1 [N-(4-bromo-3-(1H-1,2,4-triazol-5-yl)thiophen-2-yl)-2-(6-fluoroquinolin-7-yl)acetamide] | 100 to 10000 | < 100 | 100 to 10000 |

The next lines start with the values.

| IC50 (JNK3) [nM] | IC50 (JNK1) [nM] | IC50 (JNK2) [nM] | SMILES |
| --- | --- | --- | --- |
| < 100 | < 100 | 100 to 10000 | O=C(Cn1c(=O)ccc2c(C(F)(F)F)cccc21)Nc1scc(Br)c1-c1ncn[nH]1 [N-(4-bromo-3-(1H-1,2,4-triazol-5-yl)thiophen-2-yl)-2-(2-oxo-5-(trifluoromethyl)quinolin-1(2H)-yl)acetamide] |
| < 100 | < 100 | < 100 | O=C(Cn1c(=O)ccc2cc(OC(F)(F)F)ccc21)Nc1scc(Br)c1-c1ncn[nH]1 [N-(4-bromo-3-(1H-1,2,4-triazol-5-yl)thiophen-2-yl)-2-(2-oxo-6-(trifluoromethoxy)quinolin-1(2H)-yl)acetamide] |
| < 100 | < 100 | < 100 | O=C(Cn1c(=O)ccc2nc(C(F)(F)F)ccc21)Nc1scc(Br)c1-c1ncn[nH]1 [N-(4-bromo-3-(1H-1,2,4-triazol-5-yl)thiophen-2-yl)-2-(2-oxo-6-(trifluoromethyl)-1,5-naphthyridin-1(2H)-yl)acetamide] |
| < 100 | < 100 | < 100 | O=C(Cn1c(=O)ccc2cc(C(F)(F)F)ccc21)Nc1scc(Br)c1-c1ncn[nH]1 [N-(4-bromo-3-(1H-1,2,4-triazol-5-yl)thiophen-2-yl)-2-(2-oxo-6-(trifluoromethyl)quinolin-1(2H)-yl)acetamide] |
| < 100 | < 100 | < 100 | O=C(Cn1c(=O)ccc2ccc(OC(F)(F)F)cc21)Nc1scc(Br)c1-c1ncn[nH]1 [N-(4-bromo-3-(1H-1,2,4-triazol-5-yl)thiophen-2-yl)-2-(2-oxo-7-(trifluoromethoxy)quinolin-1(2H)-yl)acetamide] |
| < 100 | < 100 | < 100 | O=C(Cn1c(=O)ccc2cnc(C(F)(F)F)cc21)Nc1scc(Br)c1-c1ncn[nH]1 [N-(4-bromo-3-(1H-1,2,4-triazol-5-yl)thiophen-2-yl)-2-(2-oxo-7-(trifluoromethyl)-1,6-naphthyridin-1(2H)-yl)acetamide] |
| < 100 | < 100 | < 100 | O=C(Cn1c(=O)ccc2ccc(C(F)(F)F)cc21)Nc1scc(Br)c1-c1ncn[nH]1 [N-(4-bromo-3-(1H-1,2,4-triazol-5-yl)thiophen-2-yl)-2-(2-oxo-7-(trifluoromethyl)quinolin-1(2H)-yl)acetamide] |
| < 100 | < 100 | < 100 | O=C(Cn1c(=O)ccc2cc(Cl)ccc21)Nc1scc(Br)c1-c1ncn[nH]1 [N-(4-bromo-3-(1H-1,2,4-triazol-5-yl)thiophen-2-yl)-2-(6-chloro-2-oxoquinolin-1(2H)-yl)acetamide] |
| < 100 | < 100 | < 100 | N#Cc1ccc2c(ccc(=O)n2CC(=O)Nc2scc(Br)c2-c2ncn[nH]2)c1 [N-(4-bromo-3-(1H-1,2,4-triazol-5-yl)thiophen-2-yl)-2-(6-cyano-2-oxoquinolin-1(2H)-yl)acetamide] |
| < 100 | < 100 | < 100 | C#Cc1ccc2c(ccc(=O)n2CC(=O)Nc2scc(Br)c2-c2ncn[nH]2)c1 [N-(4-bromo-3-(1H-1,2,4-triazol-5-yl)thiophen-2-yl)-2-(6-ethynyl-2-oxoquinolin-1(2H)-yl)acetamide] |
| < 100 | < 100 | < 100 | O=C(Cn1c(=O)ccc2cc(F)ccc21)Nc1scc(Br)c1-c1ncn[nH]1 [N-(4-bromo-3-(1H-1,2,4-triazol-5-yl)thiophen-2-yl)-2-(6-fluoro-2-oxoquinolin-1(2H)-yl)acetamide] |
